Experimental data as given in patent US20230097157A1, “Bicyclic Pyridin-2-one and pyrimidin-4-one Derivatives Useful As a Factor XIa Inhibitors” (Janssen Pharmaceutica NV, priority 2021, published 2023).
Like-named read-outs stand apart in the source and are kept apart here.

What was measured:
Factor XIa = Factor XIa (Homo sapiens, UniProt P03951); assay: Factor XIa inhibition assay (FLINT) utilizing a fluorophore-quencher pair peptide substrate 5Fam-[…]-K5Tamra; assay type: biochemical; conditions: kinetic (KIN) reads, read-out: FXIa KIN Inh IC50
Chain of Factor XIa (P03951 388-625 limits assumed): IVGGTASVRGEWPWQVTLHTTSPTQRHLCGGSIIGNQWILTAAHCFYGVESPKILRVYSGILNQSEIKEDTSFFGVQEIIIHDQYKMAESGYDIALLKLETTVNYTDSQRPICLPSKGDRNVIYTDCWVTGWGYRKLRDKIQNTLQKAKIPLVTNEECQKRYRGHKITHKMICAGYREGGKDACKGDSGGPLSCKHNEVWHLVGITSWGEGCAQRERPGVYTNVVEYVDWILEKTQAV
Chain of Factor XIa (P03951 19-387 partner limits assumed): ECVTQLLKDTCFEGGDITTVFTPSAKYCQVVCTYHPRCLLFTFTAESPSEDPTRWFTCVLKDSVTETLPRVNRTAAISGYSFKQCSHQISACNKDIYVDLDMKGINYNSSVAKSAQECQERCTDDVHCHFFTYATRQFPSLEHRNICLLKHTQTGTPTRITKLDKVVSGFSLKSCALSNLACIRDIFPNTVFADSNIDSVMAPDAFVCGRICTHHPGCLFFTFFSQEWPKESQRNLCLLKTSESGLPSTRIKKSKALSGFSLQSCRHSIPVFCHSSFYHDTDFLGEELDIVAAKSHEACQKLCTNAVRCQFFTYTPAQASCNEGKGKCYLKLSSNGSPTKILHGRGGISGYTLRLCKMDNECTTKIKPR
Excerpt: Biological Example 1: Factor XIa Inhibition Assay Utilizing a Fluorophore-Quencher Pair Peptide Substrate A fluorescence intensity (FLINT) based assay was used to monitor inhibition of Factor XIa. The peptide substrate, 5Fam-[…]-K5Tamra (purchased from New England Peptide) was chosen based on the FXI sequence. Conversion of zymogen FXI to its activated form, FXIa, occurs by proteolytic cleavage by […] at two sites, Arg146 and Arg180. The custom peptide used in this assay was based on the Arg146 cleavage site of FXI. The peptide substrate was designed with a fluorophore-quencher pair, where the fluorescence is quenched until FXIa cleaves the 8-mer peptide after the Arg residue.
The Factor XIa FLINT assay was used with the following 5Fam-[…]-K5Tamra assay buffer: 50 mM Tris, pH 7.5, 100 mM NaCl, 5 mM CaCl2, 0.1 mg/mL BSA, 0.03% CHAPS. Assay buffer was prepared by mixing all ingredients fresh. 5Fam-[…]-K5Tamra peptide substrate was first prepared at 10 mM in 100% DMSO, then diluted to 3 mM in 100% DMSO. Assay buffer was then added directly to the 3 mM stock of substrate to prepare the 30 μM 2× working concentration (15 μM final concentration). The 2× Factor XIa stock solution was prepared by diluting 6.562 μM stock in 1× assay buffer for a […].
Test compound(s) were run in an 11-point, 3-fold serial dilution with a final top compound concentration of 100 nM. Final DMSO in assay was 2%. FXIa was preincubated with compound for 30-minutes and then substrate was added to initiate the reaction. The assay was run with kinetic (KIN) reads at 5 min intervals over 30 minutes. […] More specifically, the assay was run as follows: • 100 nL of 0.01 mM test compound was dispensed into black 384-well non-binding Greiner BioOne 784900 plate for 0.1 μM final concentration; • 5 μL of 1× assay buffer was dispensed to column 24 (low control) and 5 μL 2× Factor XIa solution was dispensed to columns 1-23 (column 23 high control); • the plate was centrifuged with a “cover” plate at 500 rpm for 1 min • the plate was pre-incubated for 30 minutes at room temperature with plate covered; • 5 μL of 2×5Fam-[…]-K5Tamra peptide substrate was dispensed into the entire plate, columns 1-24; • the plate was centrifuged with a “cover” plate at 500 rpm for 1 min; • the plate was read monitoring fluorescence intensity on the BMG PHERAStar at room temperature, using fluorescence module 485 nm/520 nm.
(§1) Percent inhibition (IC50) curves were generated per compound tested, and data was analyzed using a 4-parameter logistic fit using GeneData Screener. The relative fluorescence unit (RFU) values were normalized to percent inhibition using the following equation:
% inhibition=((HC−LC)−(compound−LC)/(HC−LC))*100 where LC−low control=mean signal of no Factor XIa or 100% inhibition of Factor XIa; HC−high control=mean signal of Factor XIa+5Fam-[…]-K5Tamra peptide substrate with DMSO only.
(§2) An 11-point dose response curve for the test compound(s) was generated using GENDATA to determine IC50 value based on the following equation:
Y=Bottom+(Top−Bottom)/(1+10^((log IC50−X)*HillSlope)) where Y is the % inhibition in the presence of X inhibitor concentration, Top=high control=mean signal of Factor XIa+5Fam-[…]-K5Tamra peptide substrate with DMSO only; Bottom=low control−mean signal of no Factor XIa or 100% inhibition of Factor XIa; HillSlope−Hill coefficient; and IC50=concentration of compound with 50% inhibition in relation to top/high control.

human plasma kallikrein = human plasma kallikrein (Homo sapiens, UniProt P03952); assay: Kallikrein inhibition assay (FLINT) utilizing a quenched AMC peptide substrate Z-Gly-Pro-Arg-AMC; assay type: biochemical; conditions: kinetic (KIN) reads, read-out: Kallikrein KIN Inh IC50
Chain of human plasma kallikrein (P03952 391-638 limits assumed): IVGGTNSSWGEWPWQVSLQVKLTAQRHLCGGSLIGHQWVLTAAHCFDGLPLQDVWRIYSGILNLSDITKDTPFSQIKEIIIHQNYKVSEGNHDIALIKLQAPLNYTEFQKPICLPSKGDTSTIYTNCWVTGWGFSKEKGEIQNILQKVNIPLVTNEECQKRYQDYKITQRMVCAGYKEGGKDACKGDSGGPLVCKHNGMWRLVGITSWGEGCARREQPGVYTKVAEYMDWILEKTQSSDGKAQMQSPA
Chain of human plasma kallikrein (P03952 20-390 partner limits assumed): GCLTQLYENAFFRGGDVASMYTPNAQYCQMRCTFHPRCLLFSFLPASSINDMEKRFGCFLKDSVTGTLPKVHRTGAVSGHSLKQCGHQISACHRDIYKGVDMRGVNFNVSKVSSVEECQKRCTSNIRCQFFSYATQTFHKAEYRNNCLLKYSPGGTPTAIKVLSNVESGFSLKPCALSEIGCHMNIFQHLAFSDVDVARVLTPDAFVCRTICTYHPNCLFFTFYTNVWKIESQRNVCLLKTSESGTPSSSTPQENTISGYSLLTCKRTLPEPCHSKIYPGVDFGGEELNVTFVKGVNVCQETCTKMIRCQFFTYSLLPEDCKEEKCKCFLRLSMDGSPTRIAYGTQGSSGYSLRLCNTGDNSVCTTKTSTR
Excerpt: Biological Example 2: Kallikrein Inhibition Assay Utilizing a Quenched AMC Peptide Substrate A fluorescence intensity (FLINT) based assay was used to monitor inhibition of human plasma kallikrein. The peptide substrate, Z-Gly-Pro-Arg-AMC (Purchased from Bachem; Catalog #I-1150) was chosen based on its relatively low KM for kallikrein which enables running the assay at lower substrate concentrations to control background fluorescence.
The Kallikrein FLINT assay was used with the following Z-Gly-Pro-Arg-AMC assay buffer: 50 mM Tris, pH 7.5, 100 mM NaCl, 5 mM CaCl2, 0.1 mg/mL BSA, 0.03% CHAPS. Assay buffer was prepared by mixing all ingredients fresh. 2× Z-Gly-Pro-Arg-AMC peptide substrate was prepared by diluting 10 mM stock into 1× assay buffer for a 100 μM working concentration (50 μM final concentration). The 2× kallikrein stock solution was prepared by diluting 14.76 μM stock in 1× assay buffer for a 4 nM working stock solution (2 nM final concentration).
Test compound(s) were run in an 11-point, 3-fold serial dilution with a final top compound concentration of 1 μM. Final DMSO in assay was 2%. Plasma kallikrein was pre-incubated for 30-minute with compound and then 50 μM substrate was added to initiate the reaction. The assay was run with kinetic (KIN) reads at 5 min intervals over 30 minutes. The time course was linear using 2 nM kallikrein greater than 30 minutes. More specifically, the assay was run as follows: • 100 nL of 0.1 mM test compound was dispensed into black 384-well non-binding Greiner BioOne 784900 plate for 1 μM final concentration; • 5 μL of 1× assay buffer was dispensed to columns 24 (low control) and 5 μL 2× human kallikrein enzyme solution was dispensed to columns 1-23 (column 23 high control); • the plate was centrifuged with a “cover” plate at 500 rpm for 1 min • the plate was pre-incubated for 30 minutes at room temperature with plate covered; • 5 μL of 2× Z-Gly-Pro-Arg-AMC peptide substrate was dispensed into the entire plate, columns 1-24; • the plate was centrifuged with a “cover” plate at 500 rpm for 1 min; • the plate was read monitoring fluorescence intensity on the BMG PHERAStar at room temperature, using fluorescence module 340 nm/440 nm.
as §1
% inhibition=((HC−LC)−(compound−LC)/(HC−LC))*100 where LC—low control=mean signal of […] or 100% inhibition of human kallikrein enzyme; HC—high control=mean signal of […]+Z-Gly-Pro-Arg-AMC peptide substrate with DMSO only.
as §2
Y=Bottom+(Top−Bottom)/(1+10^((log IC50−X)*HillSlope)) where Y is the % inhibition in the presence of X inhibitor concentration, Top=high control=mean signal of human kallikrein enzyme+Z-Gly-Pro-Arg-AMC peptide substrate with DMSO only; Bottom=low control−mean signal of no human kallikrein enzyme or 100% inhibition of human kallikrein enzyme; HillSlope−Hill coefficient; and IC50=concentration of compound with 50% inhibition in relation to top/high control.

Row | Compound | IC50 (Factor XIa; values in nM) [nM] | IC50 (human plasma kallikrein; unit μM) [µM] | IC50 (human plasma kallikrein; values in nM) [µM] | IC50 (Factor XIa; unit μM) [nM]
1 | C[C@@H]1C[C@@H](c2ncc(-c3ccc(N)nc3F)[nH]2)n2c1nc(-c1c(-n3cnnn3)ccc(Cl)c1F)cc2=O (relative stereo) [Example 137, (6S*,8R*)-6-(5-(6-Amino-2-fluoropyridin-3-yl)-1H-imidazol-2-yl)-2-(3-chloro-2-fluoro-6-(1H-tetrazol-1-yl)phenyl)-8-methyl-7,8-dihydropyrrolo[1,2-a]pyrimidin-4(6H)-one] | 104 | 7.2 | – | –
2 | Nc1ncc(-c2cnc([C@@H]3CC4(CC4)c4cc(-c5c(-n6cnnn6)ccc(Cl)c5F)cc(=O)n43)[nH]2)s1 [Example 18, (S)-3′-(5-(2-Aminothiazol-5-yl)-1H-imidazol-2-yl)-7′-(3-chloro-2-fluoro-6-(1H-tetrazol-1-yl)phenyl)-2′,3′-dihydro-5′H-spiro[cyclopropane-1,1′-indolizin]-5′-one] | 9.1 | – | 0.105 | –
3 | COC(=O)Nc1ccc(-c2cnc([C@@H]3C[C@@H](C)c4nc(-c5c(-n6cnnn6)ccc(Cl)c5F)cc(=O)n43)[nH]2)cn1 (stereo in doubt) [Example 118, Methyl (5-(2-((6*S,8*R)-2-(3-Chloro-2-fluoro-6-(1H-tetrazol-1-yl)phenyl)-8-methyl-4-oxo-4,6,7,8-tetrahydropyrrolo[1,2-a]pyrimidin-6-yl)-1H-imidazol-5-yl)pyridin-2-yl)carbamate] | 7.9 | – | 0.015 | –
4 | COC(=O)Nc1ccc(-c2cnc([C@@H]3C[C@H](C)c4nc(-c5c(-n6cnnn6)ccc(Cl)c5F)cc(=O)n43)[nH]2)cc1 (stereo in doubt) [Example 125, Methyl (4-(2-((6*S,8*S)-2-(3-Chloro-2-fluoro-6-(1H-tetrazol-1-yl)phenyl)-8-methyl-4-oxo-4,6,7,8-tetrahydropyrrolo[1,2-a]pyrimidin-6-yl)-1H-imidazol-5-yl)phenyl)carbamate] | 0.5 | – | 0.003 | –
5 | Nc1nsc2cc(-c3cnc([C@@H]4CC5(CC5)c5nc(-c6c(-n7cnnn7)ccc(Cl)c6F)cc(=O)n54)[nH]3)ccc12 [Example 81, (S)-6′-(5-(3-Aminobenzo[d]isothiazol-6-yl)-1H-imidazol-2-yl)-2′-(3-chloro-2-fluoro-6-(1H-tetrazol-1-yl)phenyl)-6′,7′-dihydro-4′H-spiro[cyclopropane-1,8′-pyrrolo[1,2-a]pyrimidin]-4′-one] | 0.6 | – | 0.0009 | –
6 | C[C@H]1C[C@@H](c2ncc(-c3ccc(NC(=O)C4CC4)nc3)[nH]2)n2c1nc(-c1c(-n3cnnn3)ccc(Cl)c1F)cc2=O (stereo in doubt) [Example 123, N-(5-(2-((6*S,8*S)-2-(3-Chloro-2-fluoro-6-(1H-tetrazol-1-yl)phenyl)-8-methyl-4-oxo-4,6,7,8-tetrahydropyrrolo[1,2-a]pyrimidin-6-yl)-1H-imidazol-5-yl)pyridin-2-yl)cyclopropanecarboxamide] | 3.1 | – | 0.0175 | –
7 | C[C@H]1C[C@@H](c2ncc(-c3cc(N)ncc3F)[nH]2)n2c1cc(-c1c(-n3cnnn3)ccc(Cl)c1F)cc2=O [Example 19, (1S,3S)-3-(5-(2-Amino-5-fluoropyridin-4-yl)-1H-imidazol-2-yl)-7-(3-chloro-2-fluoro-6-(1H-tetrazol-1-yl)phenyl)-1-methyl-2,3-dihydroindolizin-5(1H)-one] | 25.4 | – | 0.27 | –
8 | C[C@@H]1C[C@@H](c2ncc(-c3ccnc(F)c3)[nH]2)n2c1cc(-c1c(-n3cnnn3)ccc(Cl)c1F)cc2=O (relative stereo) [Example 45, (1*R,3*S)-7-(3-Chloro-2-fluoro-6-(1H-tetrazol-1-yl)phenyl)-3-(5-(2-fluoropyridin-4-yl)-1H-imidazol-2-yl)-1-methyl-2,3-dihydroindolizin-5(1H)-one] | – | > 10 | – | > 10000
9 | C[C@H]1C[C@@H](c2ncc(-c3ccc(N)nc3Cl)[nH]2)n2c1cc(-c1c(-n3cnnn3)ccc(Cl)c1F)cc2=O [Example 59, (1S,3S)-3-(5-(6-Amino-2-chloropyridin-3-yl)-1H-imidazol-2-yl)-7-(3-chloro-2-fluoro-6-(1H-tetrazol-1-yl)phenyl)-1-methyl-2,3-dihydroindolizin-5(1H)-one] | – | – | 0.0116 | –
10 | C[C@H]1CC(c2ncc(-c3ccnc(CN)c3)[nH]2)n2c1cc(-c1c(-n3cnnn3)ccc(Cl)c1F)cc2=O (stereo in doubt) [Example 39, (1*S,3*S)-3-(5-(2-(Aminomethyl)pyridin-4-yl)-1H-imidazol-2-yl)-7-(3-chloro-2-fluoro-6-(1H-tetrazol-1-yl)phenyl)-1-methyl-2,3-dihydroindolizin-5(1H)-one] | – | > 10 | – | –
11 | O=c1cc(-c2c(-n3cnnn3)ccc(Cl)c2F)nc2n1C(c1ncc(-c3ccnc(C4(O)CC4)c3F)[nH]1)CC21CC1 (single isomer, unassigned) [Example 75, (R*)-2′-(3-Chloro-2-fluoro-6-(1H-tetrazol-1-yl)phenyl)-6′-(5-(3-fluoro-2-(1-hydroxycyclopropyl)pyridin-4-yl)-1H-imidazol-2-yl)-6′,7′-dihydro-4′H-spiro[cyclopropane-1,8′-pyrrolo[1,2-a]pyrimidin]-4′-one] | – | – | 0.0976 | –
12 | C[C@H]1C[C@@H](c2ncc(-c3ccc(N)nc3Cl)[nH]2)n2c1cc(-c1c(-n3cnnn3)ccc(Cl)c1F)cc2=O (relative stereo) [Example 57, (1*S,3*S)-3-(5-(6-Amino-2-chloropyridin-3-yl)-1H-imidazol-2-yl)-7-(3-chloro-2-fluoro-6-(1H-tetrazol-1-yl)phenyl)-1-methyl-2,3-dihydroindolizin-5(1H)-one] | – | 3.4 | – | –
